Data on one compound can be found in US20250213545A1 (AJOU UNIVERSITY INDUSTRY-ACADEMIC COOPERATION FOUNDATION, priority 2022, published 2025).

Assay [1] deals with Parkinson's disease model (6-OHDA model) mice. The experiment in a line: Bridge test (acrossing time on a 1 m bar). Format: in vivo, C57BL/6 mice. Conditions: 20 mg/kg orally once a day. The protocol: (§1) Specifically, 8-week-old C57BL/6 mice (Daehan Biolink, Eumseong, North Chungcheong Province, Korea) were anesthetized by intraperitoneal (i.p.) injection of 200 mg/kg of 2,2,2-tribromoethanol (Sigma-Aldrich), and they were placed in a stereotaxic apparatus (David Kopf Instruments, Tujunga, CA, USA) equipped With a mouse adapter. Using a Hamilton syringe (Hamilton, Bonaduz, Switzerland), 2 μL of 6-OHDA-HCl solution (2 mg/mL) (Sigma Aldrich) in 0.02% ascorbic acid was injected into the right striatum at the following stereotactic coordinates (mm from the bregma): IP+1.0; ML-1.8; DV −3.2. The skin was sutured, and the animal was removed from the stereotaxic apparatus and placed on a heating pad for 30 minutes. Normal control mice for the diseased mouse model were injected with a vehicle (0.02% ascorbic acid) instead of 6-OHDA-HCl solution.
(§2) Behavioral experiments were performed 18 days after 6-01-IDA injection, and mice were sacrificed 21 days after 6-01-IDA injection, and histological analysis was performed.
In order to test the animal model's sense of balance, a bridge test was performed to measure the time it took to pass from one side to the other side on a 1 m long bar (acrossing time).

Assay [2] shares this test system. In words: Pole test (landing time). Conditions: 20 mg/kg orally once a day. The assay is classed as in vivo, C57BL/6 mice. On the procedure:
as §1, §2
The mouse was placed on a bar with a diameter of 8 mm and a length of 55 cm, and a pole test was performed to measure the time it took for the mouse's four feet to come down to the floor (landing time).

For assay [3] the test system is unchanged. The experiment in a line: Cylinder test. Format: in vivo, C57BL/6 mice. Conditions: 6-OHDA+fexofenadine group; 20 mg/kg orally once a day. The protocol: as §1, §2
A further assay deals with TH-positive neurons. Conditions: 6-OHDA+fexofenadine group; 20 mg/kg orally once a day; 21 days after 6-OHDA injection. On the procedure: as §1, §2
The test system of another assay is Iba-1 positive microglia. The experiment in a line: Microglial (Iba-1) staining in substantia nigra and striatum, 6-OHDA model. The assay is classed as in vivo, C57BL/6 mice. Conditions: 6-OHDA+fexofenadine group; 20 mg/kg orally once a day; 21 days after 6-OHDA injection. The protocol: Specifically, 8-week-old C57BL/6 mice (Daehan Biolink, Eumseong, North Chungcheong Province, Korea) were anesthetized by intraperitoneal (i.p.) injection of 200 mg/kg of 2,2,2-tribromoethanol (Sigma-Aldrich), and they were placed in a stereotaxic apparatus (David Kopf Instruments, Tujunga, CA, USA) equipped With a mouse adapter.
Activated microglia were analyzed through staining with anti-Iba-1 antibody (Wako, 019-19741, 1:1,000 dilution). The brain tissue preparation and tissue staining method for this purpose were performed in the same manner as the TH staining method in Example 3-1, and the images were analyzed using an Axio scan. Z1 slide scanner (Carl Zeiss, Germany). The cell number was measured and analyzed as the average value of three sheets of each tissue.

Another assay deals with GFAP. The experiment in a line: GFAP staining in cortex, striatum and substantia nigra, α-synuclein injection model. The assay is classed as in vivo, C57BL/6 mice. Conditions: PFF-fexofenadine group vs PFF-PBS; 20 mg/kg orally once a day; day 30. On the procedure:
The skin was sutured, and the animal was removed from the stereotaxic apparatus and placed on a heating pad for 30 minutes.

The test system of the next assay is α-synuclein aggregates. The experiment in a line: BiFC-α-syn Venus fluorescence in C. elegans Parkinson's disease model. Format: in vivo. The settings on record: Venus-αS C. elegans; fexofenadine, 2 days at 20° C.; vs control not treated. From the text:
(§3) For this purpose, A C. elegans Parkinson's disease model (Venus-αS) expressing BiFC-α-syn was produced by introducing plasmids that overexpress VN-linked α-synuclein in muscle cells of the pharynx and VC-linked α-synuclein in neurons that form synapses with muscle cells into wild-type Bristol N2 C. elegans purchased from the Caenorhabditis Genetics Center (CGC, University of Minnesota, St. Paul, MN) (Kim D-K et al., (2016). Autophagy. 12(10):1849-1863).

Assay [4] relates to BIFC-α-syn C. elegans Parkinson's disease model. The experiment in a line: Pharyngeal pumping analysis. Format: in vivo.
Excerpt: as §3

Assay [5] has the same test system. In words: Life-span analysis. Format: in vivo.
Excerpt: as §3
For this purpose, eggs laid by adults were grown to the L4 larval stage on NGM plates inoculated with K col. OP50 (CGC) at 20° C. When the L4 stage was reached, they were transferred to NGM plates including […] 5-fluoro-2′-deoxyuridine (Sigma-Aldrich, F0503) to prevent progeny production. The number of living and dead C. elegans was recorded every 1 or 2 days. Worms that burst, were buried or crawled out of the plate were also counted. Survival data were analyzed using OASIS2 (Survival Analysis Online Application for Lifespan Analysis http://sbi.postech.ac.kr/oasis/surv/).

[6] abbreviates: 6-OHDA+fexofenadine group, 18 days after 6-OHDA injection.
The mark [7] stands for this setting: normal mice (PBS-fexofenadine group).
Setting [8] is: C. elegans wild-type N2 treated with fexofenadine.

Consider `CC(C)(C(=O)O)c1ccc(C(O)CCCN2CCC(C(O)(c3ccccc3)c3ccccc3)CC2)cc1` (stereo not shown) [fexofenadine], for which the acrossing time entry was “restored to a level similar to that of the normal mouse control group” in assay [1] (setting [6]) and “improved compared to the normal mouse control group” in assay [1] (setting [7]). The results for the landing time result in assay [2] (setting [6]) and in assay [2] (setting [7]) were “about 6 seconds” and “approximately 4.5 seconds”, respectively. Moreover, the “motor ability (steps of forepaw opposite the damaged striatum vs undamaged)” value in assay [3] was “restored to the level of the normal mouse control group”. In addition, in the assay on TH-positive neurons, the “number of TH-positive neurons on the ipsilateral side of the substantia nigra” value was “recovered to a level similar to that of the normal mouse control group”. For the same compound, in the assay on Iba-1 positive microglia, the “number of Iba-1 positive microglia in the ipsilateral side of the striatum and substantia nigra” value is reported as “reduced to a level similar to that of the normal mouse control group”. In addition, in the assay on GFAP, the “GFAP expression in the cortex, striatum and substantia nigra, ipsilateral and contralateral sides” value was “significantly reduced”. Further, the Venus fluorescence intensity result in the assay with α-synuclein aggregates was “significantly reduced”. For the same compound, the pharyngeal pumping ability entry is “restored to a level similar to that of wild-type N2” in [4] (C. elegans Parkinson's disease model, 8 days after fexofenadine treatment) and “improves the pharyngeal pumping ability” in assay [4] (setting [8]). The lifespan entry in assay [5] (setting [8]) is recorded as “further extended”; in assay [5] (fexofenadine-treated C. elegans Parkinson's disease model) it was “about 14 days”.
